In one test the target is T1, USP7 (Homo sapiens, UniProt Q93009).
T1 construct: His tag (from vector pFastBac-HT) (N); made in house; host or cells: Sf9 or High Five insect cells (baculovirus)
Description: USP7 Activity Assay. In kind it is biochemical. To be noted: 400 nM Ub-AMC; 152 pM enzyme; pre-incubated 30 minutes at 25° C., 60 minutes at 37° C.; sigmoidal fit; read-out: USP 7 (Inhibition of cysteine protease activities). From the text:
The cDNA encoding USP7 was obtained by PCR amplification from placenta mRNA. USP7 cDNA was subcloned by PCR into a baculovirus expression vector (pFastBac-HT; Invitrogen). A cDNA encoding a mutated USP7 was generated by mutagenic PCR. The corresponding protein encodes a cysteine to alanine substitution at residue 223. The sequences were ascertained by sequencing of the entire open reading frame. Bacmids encoding USP7 were generated following DH10bac transposition. The corresponding bacmids were transfected into insect cells (Sf9). Viruses were recovered from culture supernatant and amplified twice. Insect cells (Sf9 or High Five; Invitrogen) were infected for 72 hours. Total cell lysates were harvested and lyzed in lysis buffer (Tris HCl 50 mM pH7.6; 0.75% NP40; 500 mM NaCl; 10% glycerol; 1 mM DTT; 10 mM imidazole; Protease Inhibitor. Cocktail; AEBSF
20 μg.ml^−1; Aprotinin 10 μg.ml^−1). Proteins were affinity purified on metal affinity resins (Talon Metal affinity resin; BD Biosciences). Bound materials were extensively washed in wash buffer (50 mM Sodium Phosphate pH7.0; 300 mM NaCl; 10 mM imidazole; 0.5% Triton X-100; 10% glycerol) and eluted from the resin in 250 mM imidazole-containing wash buffer. Proteins were dialyzed in dialysis buffer (Tris HCl pH 7.6 20 mM; NaCl 200 mM; DTT 1 mM; EDTA 1 mM; 10% Glycerol). Proteins purifications were analyzed on 4-12% NuPAGE (Invitrogen).
USP7 was diluted in USP buffer (50 mM Tris HCl; 0.5 mM EDTA; 5 mM DTT; 0.01% Triton X-100; Bovine Serum Albumin 0.05 mg.ml^−1 pH7.6). Compounds stocks (100 mM) were stored at −20° C. in DMSO. Compounds were tested at the following final concentrations: 100 μM; 33.3 μM; 11.1 μM; 3.7 μM; 1.23 μM; 412 nM; 137 nM; 45.7 nM; 15.2 nM; 5 nM.
(§1) Reactions were performed as duplicates in Black LJL 96 well plates (HE microplates; Molecular Devices; 20 μl final reaction volume). The substrate concentration for USP7 was 400 nM Ub-AMC (Chem. Biol., 2003, 10, p. 837-846) (Boston Biochem). The concentrations of the enzyme (USP7) in specificity assays was 152 pM. The concentrations were determined in order to perform specificity assays under initial velocities at fixed substrate concentration. Compounds were pre-incubated with enzymes for 30 minutes at 25° C. Reactions were initiated by addition of substrate to the plates containing the enzymes (+/−compounds) diluted in assay buffer. Reactions were incubated for 60 minutes at 37° C. Reactions were stopped by adding acetic acid (100 mM final). Readings were performed on a Pherastar Fluorescent Reader (BMG). λ Emission 380 nm; λ Excitation=460 nm. Data (mean values +/−standard deviation) were analyzed as % of control (no compound) and plotted as percentage versus the Log of the compound concentration using GraphPad (Prism). Data were fitted to a sigmoidal model (variable slope).

Another test deals with T2, USP5 (Homo sapiens, UniProt P45974).
T2 sequence (P45974 1-858): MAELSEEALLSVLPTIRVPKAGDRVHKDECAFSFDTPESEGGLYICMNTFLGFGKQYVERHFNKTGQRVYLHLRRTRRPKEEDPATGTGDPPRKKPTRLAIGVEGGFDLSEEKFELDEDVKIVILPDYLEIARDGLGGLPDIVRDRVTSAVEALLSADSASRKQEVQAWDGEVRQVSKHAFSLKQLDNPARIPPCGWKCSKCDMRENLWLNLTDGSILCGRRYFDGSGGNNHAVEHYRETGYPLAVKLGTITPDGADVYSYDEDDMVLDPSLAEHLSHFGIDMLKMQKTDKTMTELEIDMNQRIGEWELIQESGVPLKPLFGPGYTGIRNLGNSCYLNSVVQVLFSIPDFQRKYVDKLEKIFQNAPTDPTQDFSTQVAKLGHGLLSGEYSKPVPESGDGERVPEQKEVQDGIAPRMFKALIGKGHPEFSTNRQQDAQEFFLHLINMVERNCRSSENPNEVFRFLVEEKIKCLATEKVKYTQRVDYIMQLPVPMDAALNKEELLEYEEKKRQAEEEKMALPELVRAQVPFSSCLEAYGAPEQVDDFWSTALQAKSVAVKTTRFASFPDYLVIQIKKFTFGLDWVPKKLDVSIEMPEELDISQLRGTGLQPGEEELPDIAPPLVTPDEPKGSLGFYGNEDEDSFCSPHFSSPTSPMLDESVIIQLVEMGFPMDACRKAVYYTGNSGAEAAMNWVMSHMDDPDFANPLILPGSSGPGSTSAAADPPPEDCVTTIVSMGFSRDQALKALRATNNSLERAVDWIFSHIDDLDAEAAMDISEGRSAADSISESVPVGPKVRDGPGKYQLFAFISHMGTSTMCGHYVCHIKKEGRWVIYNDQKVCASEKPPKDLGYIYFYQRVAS
Description: USP5 Activity Assay. The format is biochemical. To be noted: 400 nM Ub-AMC; 300 pM enzyme; pre-incubated 30 minutes at 25° C., 60 minutes at 37° C.; sigmoidal fit; read-out: USP 5 (Inhibition of cysteine protease activities). The protocol: USP5 was diluted in USP buffer (50 mM Tris HCl; 0.5 mM EDTA; 5 mM DTT; 0.01% Triton X-100; Bovine Serum Albumin 0.05 mg.ml^−1 pH 7.6). Compounds stocks (100 mM) were stored at −20° C. in DMSO.
as §1, with “USP5” for “USP7”, “Ub-AMC” for “Ub-AMC (Chem. Biol., 2003, 10, p. 837-846)”, “(USP5)” for “(USP7)”, “300” for “152”, “(+/− compounds)” for “(+/−compounds)”, “+/− standard” for “+/−standard”

T1 sequence (Q93009 whole entry): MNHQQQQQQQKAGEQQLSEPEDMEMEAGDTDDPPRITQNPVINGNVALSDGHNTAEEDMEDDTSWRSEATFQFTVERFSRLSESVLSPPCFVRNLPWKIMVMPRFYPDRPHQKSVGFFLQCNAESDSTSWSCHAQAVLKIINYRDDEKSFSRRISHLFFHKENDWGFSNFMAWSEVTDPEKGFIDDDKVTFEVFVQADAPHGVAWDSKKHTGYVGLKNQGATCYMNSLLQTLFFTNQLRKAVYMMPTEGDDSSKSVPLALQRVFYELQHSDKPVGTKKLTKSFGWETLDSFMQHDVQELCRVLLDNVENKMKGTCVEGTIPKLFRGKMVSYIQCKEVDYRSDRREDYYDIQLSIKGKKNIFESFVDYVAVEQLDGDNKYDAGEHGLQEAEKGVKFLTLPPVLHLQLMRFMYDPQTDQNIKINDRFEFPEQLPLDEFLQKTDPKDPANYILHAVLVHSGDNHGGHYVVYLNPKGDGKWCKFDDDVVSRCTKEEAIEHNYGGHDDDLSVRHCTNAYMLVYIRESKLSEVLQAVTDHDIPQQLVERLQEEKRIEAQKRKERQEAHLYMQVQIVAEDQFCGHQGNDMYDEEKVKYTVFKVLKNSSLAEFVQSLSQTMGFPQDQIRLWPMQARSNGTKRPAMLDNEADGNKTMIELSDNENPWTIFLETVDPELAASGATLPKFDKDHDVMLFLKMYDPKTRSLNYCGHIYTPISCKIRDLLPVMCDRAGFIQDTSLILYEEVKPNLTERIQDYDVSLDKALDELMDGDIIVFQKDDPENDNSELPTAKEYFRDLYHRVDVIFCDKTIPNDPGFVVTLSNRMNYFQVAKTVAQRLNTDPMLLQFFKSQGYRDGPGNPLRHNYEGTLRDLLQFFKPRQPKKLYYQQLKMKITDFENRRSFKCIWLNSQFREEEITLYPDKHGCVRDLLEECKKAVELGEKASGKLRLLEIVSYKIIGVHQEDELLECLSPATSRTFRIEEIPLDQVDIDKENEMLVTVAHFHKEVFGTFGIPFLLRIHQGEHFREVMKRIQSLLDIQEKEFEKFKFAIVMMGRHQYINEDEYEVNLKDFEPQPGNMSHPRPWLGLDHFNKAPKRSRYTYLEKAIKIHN

Consider `O=C1c2ccccc2-c2nn3c(C4CC4)nnc3nc21` [Example 1j/B, 3-Cyclopropyl-1,2,3a,4,10-pentaaza-cyclopenta[b]fluoren-9-one], for which the IC50 on USP7 was found to be 207 nM. On to `O=C1c2ccccc2-c2nc3nnc(CO)n3nc21` [Example 1h/A, 1-Hydroxymethyl-2,3,4,10,10a-pentaaza-cyclopenta[b]fluoren-9-one], for which the results for the IC50 at USP7 and on USP5 were 9700 nM and 2500 nM, respectively. Turning to `Cc1nnc2nc3c(nn12)C(=O)c1ccccc1-3` [Example 1b/A, 1-Methyl-2,3,4,10,10a-pentaaza-cyclopenta[b]fluoren-9-one], the IC50 at USP7 worked out at 16700 nM; on USP5 it was 7600 nM. `CCCCc1nnc2nc3c(nn12)-c1ccccc1C3=O` [Example 1f/B, 3-Butyl-1,2,3a,4,10-pentaaza-cyclopenta[b]fluoren-9-one]: the IC50 on USP7 was found to be 604 nM; at USP5, 237 nM. As for `Nc1nnc2nc3c(nn12)-c1ccccc1C3=O` [Example 1c/B, 3-Amino-1,2,3a,4,10-pentaaza-cyclopenta[b]fluoren-9-one], the IC50 at USP7 worked out at 700 nM. Turning to `CC(C)Cc1nnc2nc3c(nn12)C(=O)c1ccccc1-3` [Example 1g/A, 1-Isobutyl-2,3,4,10,10a-pentaaza-cyclopenta[b]fluoren-9-one], the IC50 on USP5 was over 100000 nM. Consider `Cc1nnc2nc3c(nn12)-c1ccccc1C3=O` [Example 1b/B, 3-Methyl-1,2,3a,4,10-pentaaza-cyclopenta[b]fluoren-9-one], for which the IC50 at USP7 was 550 nM. For `O=C1c2ccccc2-c2nn3c(CO)nnc3nc21` [Example 1h/B], on USP7, the IC50 was determined as 1610 nM. On to `Cn1nc2nc3c(nc2n1)-c1ccccc1C3=O` [Example 4a, 2-Methyl-2H-1,2,3,4,10-pentaaza-cyclopenta[b]fluoren-9-one], for which the IC50 was determined as 51000 nM on USP7 and 23000 nM on USP5. Consider `CCCc1nnc2nc3c(nn12)C(=O)c1ccccc1-3` [Example 1e/A, 1-Propyl-2,3,4,10,10a-pentaaza-cyclopenta[b]fluoren-9-one], for which, on USP5, the IC50 is over 100000 nM. Consider `O=C1c2ccccc2-c2nc3nnc(Cc4ccccc4)n3nc21` [Example 1k/A, 1-Benzyl-2,3,4,10,10a-pentaaza-cyclopenta[b]fluoren-9-one], for which the IC50 on USP7 was 3300 nM. With `CCCc1nnc2nc3c(nn12)-c1ccccc1C3=O` [Example 1e/B, 3-Propyl-1,2,3a, 4,10-pentaaza-cyclopenta[b]fluoren-9-one], on USP7, the IC50 is 662 nM. For `O=C1c2ccccc2-c2nn3c(Cc4ccccc4)nnc3nc21` [Example 1k/B, 3-Benzyl-1,2,3a,4,10-pentaaza-cyclopenta[b]fluoren-9-one], the IC50 on USP7 came out at 425 nM.

In the case of “6-(7)-Chloro-1-methyl-2,3,4,10,10a-pentaaza-cyclopenta[b]fluoren-9-one [Example 3/A]”, the IC50 turned out to be 2800 nM at USP7 and 1540 nM on USP5. For the compound `CC(C)Cc1nnc2nc3c(nn12)-c1ccccc1C3=O` [Example 1g/B, 3-Isobutyl-1,2,3a,4,10-pentaaza-cyclopenta[b]fluoren-9-one], the IC50 at USP7 was 789 nM. For `Nc1nnc2nc3c(nn12)C(=O)c1ccccc1-3` [Example 1c/A, 1-Amino-2,3,4,10,10a-pentaaza-cyclopenta[b]fluoren-9-one], the IC50 on USP7 stood at 15300 nM; on USP5, 2800 nM. With `COCc1nnc2nc3c(nn12)C(=O)c1ccccc1-3` [Example 1i/A, 1-Methoxymethyl-2,3,4,10,10a-pentaaza-cyclopenta[b]fluoren-9-one], the IC50 on USP5 was over 100000 nM. Regarding `CCc1nnc2nc3c(nn12)C(=O)c1ccccc1-3` [Example 1d/A, 1-Ethyl-2,3,4,10,10a-pentaaza-cyclopenta[b]fluoren-9-one], the IC50 on USP7 worked out at 16500 nM; at USP5 it was 3230 nM. Regarding `CCCCc1nnc2nc3c(nn12)C(=O)c1ccccc1-3` [Example 1f/A, 1-Butyl-2,3,4,10,10a-pentaaza-cyclopenta[b]fluoren-9-one], the values for the IC50 on USP7 and at USP5 were 23000 nM and 3900 nM, respectively. As to `CCc1nnc2nc3c(nn12)-c1ccccc1C3=O` [Example 1d/B, 3-Ethyl-1,2,3a, 4,10-pentaaza-cyclopenta[b]fluoran-9-one], the IC50 at USP7 was determined as 225 nM.

On to `Cc1nnc2nc3c(nn12)-c1ccc(Cl)cc1C3=O` [Example 3/B, 7-Chloro-3-methyl-1,2,3a, 4,10-pentaaza-cyclopenta[b]fluoren-9-one], for which the IC50 on USP7 came out at 522 nM; on USP5, 260 nM. For the compound `COCc1nnc2nc3c(nn12)-c1ccccc1C3=O` [Example 1i/B, 3-Methoxymethyl-1,2,3a, 4,10-pentaaza-cyclopenta[b]fluoren-9-one], the IC50 worked out at 461 nM on USP7 and 487 nM on USP5.

Source of the values: patent US7462615B2, “Inhibitors of cysteine proteases, the pharmaceutical compositions thereof and their therapeutic applications” (Hybrigenics SA, priority 2005, dated 2008).
